For data set [1], the system named is rat model of Parkinson's disease. The experiment in a line: Rotation test. It is filed as in vivo.
The conditions of data set [2]: oral gavage, 8 mg in saline with 1% methylcellulose, carbidopa pre-treatment, 0-30 min.
Data set [3] deals with rat model of Parkinson's disease. The experiment in a line: Akinesia task. The class given is in vivo.
The test system is the same in data set [4]. Briefly: Bracing task. It is filed as in vivo.
The test system is the same in data set [5]. Briefly: Placing task. It is filed as in vivo.
Data set [6] can be described thus: Aerodynamic diameter by AeroDisperser/Aerosizer (AeroBreather for emitted size). Particulars: AIR inhaler at 30 L/min, FIG. 2B. It is filed as physicochemical. The procedure: The primary aerodynamic diameter was measured using an AeroDisperser/Aerosizer (TSI Inc., Amherst, Mass.). The sample powder was aerosolized by an inlet air stream at 1 psi in the AeroDisperser and then accelerated to sonic velocity into the Aerosizer. The Aerosizer measures the time taken for each particle to pass between two fixed laser beams, which is dependent on the particle's inertia. The TOF (time of flight) measurements were subsequently converted into aerodynamic diameters using Stokes law.
The emitted aerodynamic diameter from the AIR inhaler was determined using the AeroBreather (TSI Inc., Amherst, Mass.) in conjunction with the Aerosizer (TSI, Inc.). The powder was aerosolized from the inhaler at 30 L/min into the AeroBreather chamber and allowed to settle into the Aerosizer.
Aerodynamic diameter was analyzed using the API AeroDisperser and Aerosizer (TSI, Inc., St. Paul, Minn.) following standard procedures (Alkermes SOP #MS-034-005). Sample powder was introduced and dispersed in the AeroDisperser and then accelerated through a nozzle in the Aerosizer. A direct time-of-flight measurement was made for each particle in the Aerosizer, which was dependent on the particle's inertia. The time-of-flight distribution was then translated into a mass-based aerodynamic particle size distribution using a force balance based on Stokes law.

A further data set can be described thus: Tap density. The class given is physicochemical. The source says:
Tap density can be measured by using instruments known to those skilled in the art such as the Dual Platform Microprocessor Controlled Tap Density Tester (Vankel, N.C.). Tap density is a standard measure of the envelope mass density. Tap density can be determined using the method of USP Bulk Density and Tapped Density, United States Pharmacopia convention, Rockville, Md., 10th Supplement, 4950-4951, 1999. In another embodiment, the particles have a mass median geometric diameter (MMGD) greater than about 5 μm and preferably near to or greater than about 10 μm. In one embodiment, the particles have a MMGD greater than about 5 μm and ranging to about 30 μm. In another embodiment, the particles have a MMGD ranging from about 10 μm to about 30 μm.

The nature of data set [7]: Geometric diameter by RODOS dry powder disperser / HELOS laser diffraction. The class given is physicochemical. An excerpt:
The Applicants introduced the powders into and dispersed the powder through an orifice in the RODOS dry powder disperser at varying shear forces by manipulating the regulator pressure of the air stream used to break up the particles. The Applicants obtained the geometric size distribution from the HELOS laser diffractometer as the powder exited and recorded the median value. The data was summarized and plotted as the mass median geometric diameter (MMGD) against pressure.
To evaluate the deagglomeration properties of the three powders, Applicants introduced the powders into a RODOS dry powder disperser and varied the shear force in order to break up the particles by manipulating the regulator pressure of the air stream. Subsequently, following the manufacturer's instructions, Applicants obtained the geometric size distribution from the HELOS laser diffractometer and recorded the median value. The data was summarized and plotted as […] (MMGD) against pressure.
Particles of the present invention were further characterized by the following techniques. The primary geometric diameter was measured using a RODOS dry powder disperser (Sympatec, Princeton, N.J.) in conjunction with a HELOS laser diffractometer (Sympatec). Powder was introduced into the RODOS inlet and aerosolized by shear forces generated by a compressed air stream regulated at 4 bar. The aerosol cloud was subsequently drawn into the measuring zone of the HELOS, where it scattered light from a laser beam and produced a Fraunhofer diffraction pattern used to infer the particle size distribution.
Geometric diameter was determined using a laser diffraction technique (Alkermes SOP #MS-021-005). The equipment consists of a HELOS diffractometer and a RODOS disperser (Sympatec, Inc., Princeton, N.J.). The RODOS disperser applies a shear force to a sample of particles, controlled by the regulator pressure of the incoming compressed air. The dispersed particles travel through a laser beam where the resulting diffracted light pattern produced is collected by a series of detectors. […]

Data set [8] can be described thus: Geometric diameter emitted from breath-activated inhaler (IHA/HELOS). The class given is physicochemical. Particulars: 5 mg in size #2 capsule. The procedure:
To further evaluate the ability of the three powders to emit from a simple, breath-activated inhaler, Applicants placed 5 mg of each powder in a size #2 methyl cellulose capsule and inserted the capsule into a breath-activated inhaler. It will be appreciated by those skilled in the art that the receptacle into which the powders are placed will depend on the type of inhaler selected. […] The same results were obtained from measurements of the aerodynamic diameter, with spray-dried particles emitting with very similar aerodynamic diameters as compared to the primary particles.
The geometric diameter emitted from the breath-activated inhaler was measured using an IHA accessory (Sympatec) with the HELOS laser diffractometer. The IHA adapter positions the DPI in front of the measuring zone and allows air to be pulled through the DPI which aerosolizes the powder. Vacuum was drawn at 30 L/min to disperse powder from the AIR inhaler and the geometric diameter was measured by Fraunhofer diffraction.

Where two headings read alike, the source gives them in different places.

On to `CC(C(=O)O)c1cccc(C(=O)c2ccccc2)c1` (stereo not drawn) [Ketoprofen], for which the “time required to achieve maximum plasma concentration” value by setting is: (insufflated rats) < 15 min; (orally dosed rats) 15 to 60 min; (pulmonary delivery route) ≤ 10 min. In addition, the “plasma levels of ketoprofen, insufflated versus oral group” value is, setting by setting: (t=5 min to t=60 min) “significantly higher”; (t=120 min and t=240 min) “statistically equivalent”.

In the case of `N[C@@H](Cc1ccc(O)c(O)c1)C(=O)O` [L-Dopa], the “rotation behavior without pre-treatment with carbidopa” value in data set [1] (data not shown) is listed as “virtually eliminated”. Besides, the “time of peak rotation levels” value in [1] (oral, 30 mg/kg) is given as “approximately 30 minutes”. In addition, the “rotations during the first 10-15 minutes” value in data set [1] (oral, 30 mg/kg, carbidopa pre-treatment) is recorded as < 5 rotations/animal. Also, in [1] (pulmonary, 2 mg total), the “rotations relative to oral delivery within the first 10-15 minutes” value is reported as “greater than 3 times” and the “time of peak rotations” value fell in the range of 25 to 30 min. In data set [2], the “increase in blood levels of L-Dopa over time” value is recorded as “modest”. In addition, in data set [3] (oral, 30 mg/kg), the “time of maximal effects” value was ≤ 60 min and the “time to improved performance” value is ≤ 30 min. Moreover, in data set [3] (pulmonary), the “lowest dose with statistically significant (p<0.05) improvements” value is 1.0 mg, the “time of peak benefits” value lay in the range of 15 to 30 min and the “time to significant improvements” value is ≤ 10 min. Besides, the effect on performance entry in data set [4] (oral, 20 mg/kg) is listed as “slightly improved performance”. Moreover, in data set [4] (oral, 30 mg/kg), the “time of maximal effects” value is ≤ 60 min and the “time to improved performance” value was ≤ 30 min. Moreover, in data set [4] (pulmonary), the “lowest dose with statistically significant improvements” value turned out to be 0.5 mg, the “time of peak benefits” value fell in the range of 15 to 30 min and the “time to significant improvements” value is ≤ 10 min. For the same molecule, the “difference in drug required to produce equivalent efficacy, oral versus pulmonary” value in data set [5] (doses normalized by body weight) is recorded as ~10 fold. Besides, in [5] (oral, 20 mg/kg), the “time of maximal effects” value worked out at 60 min. Further, in data set [5] (oral, 30 mg/kg), the “time of peak performance” value is 1 to 2 h and the “time to improved performance with the impaired limb” value is ≤ 30 min. Moreover, in data set [5] (pulmonary), the “lowest dose with significant improvements” value was determined as 0.5 mg and the “pulmonary dose with recovery comparable to 30 mg/kg given orally” value is recorded as 1 mg. In data set [5] (pulmonary, highest dose tested), the “time of peak benefits” value fell in the range of 15 to 30 min and the “time to significant improvements” value was ≤ 10 min.

On to “albuterol sulfate [Micronized Alb. Sulfate (1)]”, for which the “emitted aerodynamic diameter compared to primary aerodynamic diameter” value in [6] is recorded as “much larger”. The “ρ (tap density)” value in the data set “Tap density” amounted to 0.26 g/cc. Besides, the “primary particle size as measured by RODOS” value in data set [7] is listed as ~2 microns. In [7] (RODOS/HELOS), the “Dg (geometric diameter)” value turned out to be 2.5 μm. In [7] (pressures below 2 bars), the “state of powder exiting the RODOS orifice” value is reported as “aggregated state”. In addition, the “geometric diameter emitted from the inhaler” value in data set [8] is given as “greater than 30 microns”.

These data come from US8628754B2, “Highly efficient delivery of a large therapeutic mass aerosol” (Civitas Therapeutics, Inc., priority 2000, dated 2014).
